Laboratory results taken from publication PMC7904550, “Application of grouping and read-across for the evaluation of parabens of different chain lengths with a particular focus on endocrine properties” (Archives of Toxicology, 2021).

Columns and labels:
[1] = Octanol–water partition coefficient (Log Kow); format: physicochemical; conditions: mean; OECD TG 107 and OECD TG 117
Description: Generally, these parabens have very similar physico-chemical properties.

in vivo = conditions: for concentration at 1 h / Tmax / AUC(0-t) / Cmax: Wistar, rat, serum; for concentration at 1 h: oral; for Tmax / AUC(0-t) / Cmax: po; for AUC(0-t) / Cmax / AUC0-1 h/AUC0–t / C1h/Cmax / Clast / tlast: parent compound
Procedure: These studies were conducted similarly to OECD TG 417 applying 500 and 1000 mg/kg body weight (bw) test item via oral gavage to 10 males and 10 females per dose group. Focus of the toxicokinetic evaluation was on the measurement of the serum concentrations of the parent compounds and their (common) major metabolite p-hydroxybenzoic acid by […] in order to assess the systemic uptake and elimination of the parent compounds and this major metabolite [see also ECHA ([2017a])]. The limit of quantification was determined as 10 ng/mL for all parabens, and as 130 ng/mL for p-hydroxybenzoic acid. […] On account of these major aims, investigations of the faeces and urine were not included in the toxicokinetics screening studies.

[2] = Grouping and read-across of NOAEL (ECHA RAAF Scenario 5; analogue approach)
Description: The strength of evidence for the respective AEs was scored by the assessment options indicated in the RAAF ranging from Score 5 (acceptable with high confidence) to Score 1 (not acceptable) (ECHA [2017b]).

rats [3] = conditions: acute oral, rats, OECD 401; ref ECHA dissemination portal; cited from earlier work
rats [4] = conditions: rat, in vivo; cited from earlier work
rats [5] = conditions: rat, in vivo; cited from earlier work; remark: listed apart in the source
rats [6] = conditions: rat, in vivo; cited from earlier work; remark: listed apart in the source
bacteria = conditions: OECD 471; ref ECHA dissemination portal; cited from earlier work
rats [7] = conditions: read-across from MP; ref ECHA dissemination portal; cited from earlier work
SD-JCL rats = conditions: feeding study, ref Sado 1973, Liebert 1984; cited from earlier work
rats [8] = conditions: ref EFSA 2004; cited from earlier work
[9] = read-across by interpolation from methyl paraben and propyl paraben

For `CCOC(=O)c1ccc(O)cc1` [Ethyl paraben, Ethyl 4-hydroxybenzoate], the “Log Kow” value [1] was 2.3 (mean; OECD TG 107 and OECD TG 117), the concentration at 1 h (in vivo; female, 500 mg/kg) was 116 ng/mL and the concentration at 1 h (in vivo; female, 1000 mg/kg) was 305 ng/mL. It also gave a Tmax (in vivo; female, 500 mg/kg) of 4.8 min, an AUC(0-t) (in vivo; female, 500 mg/kg, AUC0-1 h) of 1080 ng·h/mL and an AUC(0-t) (in vivo; female, 500 mg/kg, AUC0–t) of 1540 ng·h/mL. The Cmax (in vivo; female, 500 mg/kg) was 5930 ng/mL, the Tmax (in vivo; female, 1000 mg/kg) was 10.2 min and the AUC(0-t) (in vivo; female, 1000 mg/kg, AUC0-1 h) was 1660 ng·h/mL. It also gave an AUC(0-t) (in vivo; female, 1000 mg/kg, AUC0–t) of 3320 ng·h/mL, a Cmax (in vivo; female, 1000 mg/kg) of 5150 ng/mL and a Cmax (in vivo; female, 1000 mg/kg, females) of 5000 ng/mL. For the same molecule, the concentration at 1 h (in vivo; male, 500 mg/kg) was 71.6 ng/mL, the concentration at 1 h (in vivo; male, 1000 mg/kg) was 96.6 ng/mL and the Tmax (in vivo; male, 500 mg/kg) was 4.8 min. For the same molecule, the AUC(0-t) (in vivo; male, 500 mg/kg, AUC0-1 h) was 320 ng·h/mL, the AUC(0-t) (in vivo; male, 500 mg/kg, AUC0–t) was 632 ng·h/mL and the Cmax (in vivo; male, 500 mg/kg) was 1540 ng/mL. For the same molecule, the Tmax (in vivo; male, 1000 mg/kg) was 4.8 min, the AUC(0-t) (in vivo; male, 1000 mg/kg, AUC0-1 h) was 490 ng·h/mL and the AUC(0-t) (in vivo; male, 1000 mg/kg, AUC0–t) was 789 ng·h/mL. The Cmax (in vivo; male, 1000 mg/kg) was 2390 ng/mL, the Cmax (in vivo; male, 1000 mg/kg, males) was 2000 ng/mL and the “AUC0-1 h/AUC0–t” value (in vivo; 500 mg/kg, female) was 70%. The C1h/Cmax (in vivo; 500 mg/kg, female) was 2.0%, the Clast (in vivo; 500 mg/kg, female) was 23.9 ng/mL and the tlast (in vivo; 500 mg/kg, female) was 8.0 h. For the same molecule, the “AUC0-1 h/AUC0–t” value (in vivo; 500 mg/kg, male) was 51%, the C1h/Cmax (in vivo; 500 mg/kg, male) was 4.7% and the Clast (in vivo; 500 mg/kg, male) was 70.6 ng/mL. For the same molecule, the tlast (in vivo; 500 mg/kg, male) was 8.0 h, the “AUC0-1 h/AUC0–t” value (in vivo; 1000 mg/kg, female) was 50% and the C1h/Cmax (in vivo; 1000 mg/kg, female) was 5.9%. The Clast (in vivo; 1000 mg/kg, female) was 168 ng/mL, the tlast (in vivo; 1000 mg/kg, female) was 8.0 h and the “AUC0-1 h/AUC0–t” value (in vivo; 1000 mg/kg, male) was 62%. It also gave a C1h/Cmax (in vivo; 1000 mg/kg, male) of 4.0%, a Clast (in vivo; 1000 mg/kg, male) of 33.3 ng/mL and a tlast (in vivo; 1000 mg/kg, male) of 8.0 h. The “NOAEL for repeated-dose toxicity and DART” value ([2]; interpolated from methyl paraben and propyl paraben) was 1000 mg/kg bw/day, the “NOAEL, EOGRTS: developmental and reproductive toxicity” value [2, 9] was “NOAEL: 1000 (Read-across by interpolation) mg/kg body weight/day” and the “NOAEL, developmental toxicity (OECD TG 414)” value [2, 9] was “NOAEL: 1000 (Read-across by interpolation) mg/kg body weight/day”. The “NOAEL, reproductive toxicity (OECD TG 421/422)” value [2, 9] was “NOAEL: 1000 (Read-across by interpolation) mg/kg body weight/day”, the LD50 (rats [3]) was > 3100 (OECD 401; 1982) mg/kg bw and the “Skin irritation/skin corrosion classification” value (rats [4]) was “Not irritating (OECD 404; 1983)”. For the same molecule, the “Eye irritation/eye corrosion classification” value (rats [5]) was “Not irritating (OECD 405; 1983)”, the Skin sensitisation classification (rats [6]) was “Not sensitising (equiv. OECD 406; 1981)” and the “Mutagenicity in bacteria classification” value (bacteria) was “Not mutagenic [c] (OECD 471; 2012)”. For the same molecule, the “Genetic toxicity in vivo (rats) classification” value (rats [7]) was “Not clastogenic (read-across from MP)”, the “NOAEL, 25-week repeated dose toxicity” value (SD-JCL rats) was “NOAEL: 1200 (25-week repeated dose toxicity [a]) mg/kg body weight/day” and the NOAEL (rats [8]) was 1000 mg/kg bw/day.
